The supplement of paper PMC10307832

Assays:
Experiment in all cases: relative viability (nuclei count vs DMSO), 5 days (fraction); higher = more cells survive
Veliparib + OSI-027 = compound: C[C@]1(c2nc3c(C(N)=O)cccc3[nH]2)CCCN1 [Veliparib] + COc1cccc2cc(-c3nc([C@H]4CC[C@H](C(=O)O)CC4)n4ncnc(N)c34)[nH]c12 [OSI-027] (partner 0.5 µM)
In short: (§1)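 Relative viability equals treated-well nuclei counts divided by vehicle-well nuclei counts. Counts came from 4× images of lung cancer cell lines grown in 1536-well plates for 5 days after pin-tool dosing on the day after seeding. Dosing used one drug alone or a fixed anchor-drug dose plus five library-drug doses (not always all listed) in √10 steps, and values are medians of duplicate plates.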

Veliparib + Olaparib = compound: C[C@]1(c2nc3c(C(N)=O)cccc3[nH]2)CCCN1 [Veliparib] + O=C(c1cc(Cc2n[nH]c(=O)c3ccccc23)ccc1F)N1CCN(C(=O)C2CC2)CC1 [Olaparib] (partner 8 µM)
In short: as §1

Veliparib + Decitabine = compound: C[C@]1(c2nc3c(C(N)=O)cccc3[nH]2)CCCN1 [Veliparib] + Nc1ncn([C@H]2C[C@H](O)[C@@H](CO)O2)c(=O)n1 [Decitabine] (partner 2 µM)
In short: as §1

[1] = compound: COC1=CC=C(C=C1)CN2C=CC3=C2C=C(C=C3)C(=O)NO + Nc1nc2[nH]cc(CCc3ccc(C(=O)N[C@@H](CCC(=O)O)C(=O)O)cc3)c2c(=O)[nH]1 [Pemetrexed] (partner 0.2 µM)
In short: as §1

Cell Line | relative viability (Veliparib + OSI-027; first compound 0.02 µM) | relative viability (Veliparib + OSI-027; first compound 0.06325 µM) | relative viability (Veliparib + OSI-027; first compound 0.2 µM) | relative viability (Veliparib + OSI-027; first compound 0.6325 µM) | relative viability (Veliparib + OSI-027; first compound 2 µM) | relative viability (Veliparib + Olaparib; first compound 0.02 µM) | relative viability (Veliparib + Olaparib; first compound 0.06325 µM) | relative viability (Veliparib + Olaparib; first compound 0.2 µM) | relative viability (Veliparib + Olaparib; first compound 0.6325 µM) | relative viability (Veliparib + Olaparib; first compound 2 µM) | relative viability (Veliparib + Decitabine; first compound 0.02 µM) | relative viability (Veliparib + Decitabine; first compound 0.06325 µM) | relative viability (Veliparib + Decitabine; first compound 0.2 µM) | relative viability (Veliparib + Decitabine; first compound 0.6325 µM) | relative viability (Veliparib + Decitabine; first compound 2 µM) | relative viability ([1]; first compound 0.08 µM) | relative viability ([1]; first compound 0.253 µM) | relative viability ([1]; first compound 0.8 µM) | relative viability ([1]; first compound 2.53 µM) | relative viability ([1]; first compound 8 µM)
NCI-H2342 | 0.586 | 0.558 | 0.649 | 0.687 | 0.572 | 0.383 | 0.461 | 0.469 | 0.41 | 0.474 | 0.729 | 0.758 | 0.679 | 0.718 | 0.725 | 0.726 | 0.788 | 0.791 | 0.753 | 0.829
ChaGo-K-1 | 0.266 | 0.519 | 0.513 | 0.589 | 0.55 | 0.362 | 0.447 | 0.429 | 0.387 | 0.443 | 0.446 | 0.453 | 0.411 | 0.439 | 0.422 |  | 0.266 | 0.275 | 0.262 | 0.255
NCI-H358 | 0.496 | 0.715 | 0.796 | 0.611 | 0.698 | 0.673 | 0.739 | 0.662 | 0.564 | 0.597 | 0.208 | 0.196 | 0.181 | 0.156 | 0.18 |  | 0.161 | 0.161 | 0.167 | 0.164
LK-2 | 0.164 | 0.204 | 0.229 | 0.263 | 0.206 | 0.696 | 0.629 | 0.659 | 0.757 | 0.85 | 0.259 | 0.278 | 0.273 | 0.283 | 0.225 |  | 0.207 | 0.354 | 0.353 | 0.243
NCI-H460 | 0.677 | 0.63 | 0.621 | 0.583 | 0.632 | 0.427 | 0.316 | 0.489 | 0.434 | 0.425 | 0.407 | 0.255 | 0.203 | 0.212 | 0.132 | 0.0617 | 0.058 | 0.0547 | 0.0598 | 0.0652
SK-LU-1 | 0.388 | 0.316 | 0.381 | 0.307 | 0.343 | 0.492 | 0.415 | 0.491 | 0.364 | 0.424 | 0.634 | 0.663 | 0.58 | 0.583 | 0.485 | 0.942 | 0.973 | 1 | 1.01 | 0.953
LU99A | 0.297 | 0.303 | 0.27 | 0.266 | 0.323 | 0.252 | 0.266 | 0.257 | 0.265 | 0.31 | 1.01 | 0.875 | 0.932 | 0.825 | 0.866 |  | 0.181 | 0.169 | 0.174 | 0.194
UMC-11 | 0.508 | 0.471 | 0.472 | 0.469 | 0.415 | 0.627 | 0.336 | 0.485 | 0.359 | 0.438 | 0.568 | 0.568 | 0.476 | 0.444 | 0.389 | 0.568 | 0.854 | 0.823 | 0.793 | 0.784
NCI-H1650 |  | 0.501 | 0.691 | 0.502 | 0.561 | 0.918 | 0.679 | 0.729 | 0.707 | 0.757 | 0.256 | 0.326 | 0.433 | 0.43 | 0.308 | 0.286 | 0.428 | 0.378 | 0.392 | 0.308
PC-3 [JPC-3] | 0.773 | 0.74 | 0.813 | 0.755 | 0.755 | 1.17 |  | 1.22 | 1.06 | 1.07 | 0.766 |  | 0.85 | 0.763 | 0.741 | 1.04 |  | 1.14 | 1.21 | 1.12
A-427 |  | 0.414 | 0.485 | 0.456 | 0.463 | 0.575 | 0.697 | 0.78 | 0.656 | 0.737 | 0.557 | 0.473 | 0.593 | 0.492 | 0.546 | 0.923 |  | 0.965 | 0.907 | 0.842
HCC-366 | 0.961 | 0.752 | 0.89 | 0.838 | 0.915 | 0.431 | 0.374 | 0.401 | 0.303 | 0.353 | 0.332 | 0.225 | 0.195 | 0.189 | 0.182 | 0.119 | 0.153 | 0.172 | 0.153 | 0.175
LCLC-97TM1 | 0.51 | 0.5 | 0.505 | 0.433 | 0.587 | 0.433 | 0.475 | 0.439 | 0.233 | 0.527 | 0.205 | 0.206 | 0.237 | 0.208 | 0.194 |  | 0.192 | 0.182 | 0.191 | 0.144
NCI-H2170 | 0.771 | 0.748 | 0.741 | 0.683 | 0.617 | 0.573 | 0.587 | 0.58 | 0.586 | 0.586 | 0.405 | 0.436 | 0.378 | 0.389 | 0.381 | 0.276 | 0.268 | 0.266 | 0.26 | 0.235
NCI-H2085 |  | 0.721 | 0.629 | 0.713 | 0.675 | 0.789 | 0.776 | 0.779 | 0.708 | 0.734 | 0.519 | 0.453 | 0.486 | 0.48 | 0.498 | 1.07 | 0.951 | 1.02 | 0.941 | 0.948
NCI-H1666 | 0.938 | 0.791 | 0.763 | 0.806 | 0.848 | 0.777 | 0.711 | 0.82 | 0.771 | 0.778 | 0.716 | 0.596 | 0.764 | 0.645 | 0.701 | 0.761 | 0.914 | 0.84 | 0.918 | 0.87
